# Measured values published in patent publication US9340524B2, “Androgen receptor modulator and uses thereof” (Aragon Pharmaceuticals, Inc., priority 2013, dated 2016).
# Columns and labels:
# non-metastatic CRPC = test: Phase II clinical trial, non-metastatic CRPC; format: in vivo, human; conditions: 240 mg/day
# Excerpt: (§1) The primary objective was to assess antitumor activity and PSA kinetics as defined by the Prostate Cancer Clinical Trials Working Group (PCWG2) criteria. […] The median time to PSA progression was not reached for the TN cohort during the preliminary 12-week period, and was 16 weeks in the PA cohort.
# The median time to PSA progression was not reached in this observed time period.
# [1] = test system: non-castrate hormone-sensitive and bicalutamide-resistant human prostate cancer xenograft models; conditions: in vivo; cited from earlier work
# LNCaP/AR cells = test: LNCaP/AR model for castrate resistant prostate cancer xenograft studies; format: in vivo, male SCID Hairless Outbred mice; conditions: for Efficacy on LNCaP/AR tumors: monotherapy at or near maximally efficacious dose
# Method: In some embodiments, overexpression of wild type androgen receptor 3-5 fold in the LNCaP (LNCaP/AR) cell line confers a castration resistant phenotype both in vitro and in vivo.
# Six to Seven week old male SCID Hairless Outbred mice (SHO, Charles Rivers Laboratories) underwent bilateral orchiectomy under isoflurane anesthesia. LNCaP/AR cells were grown in RPMI at 5% CO2, 37° C. Cells were spun down and re-suspended in 50% serum-free RPMI and 50% Matrigel at 1×10^7 cells/ml. LNCaP/AR cells were subcutaneously injected (100 μl/animal) on the right flank 3-5 days post castration. Tumor volume (length×width^2/2) was monitored weekly. When tumors reached an average volume of ˜200 mm^3 animals were randomized into treatment groups. During the treatment period tumor volume was monitored bi-weekly. At the termination of the study, tumors were collected and stored for further analyses. All compounds were administered daily by oral gavage. Statistical analyses were performed using Graphpad Prism.
# MDA MB 453 cells = test: MDA MB 453 breast cancer xenograft assay; format: in vivo, female SCID Hairless Outbred (SHO) mice; conditions: 30 mg/kg/day, daily for 28 days
# Method: Time release pellets (12.5 mg 5α-Dihydrotestosterone/60 days) were subcutaneously implanted into female SCID Hairless Outbred (SHO) mice. MDA MB 453 cells were grown in RPMI containing 10% FBS, 10 μg/ml insulin, 10 mM Sodium Pyruvate, 10 mM Non-Essential Amino Acids at 5% CO2, 37° C. Cells were spun down and re-suspended in 50% RPMI (serum free) and 50% Matrigel (BD, high concentration containing phenol red) at 1×10^7 cells/ml. MDA MB 453 cells were subcutaneously injected (100 μl/animal) on the right flank 2-3 days post pellet implantation. Tumor volume (length×width^2/2) was monitored bi-weekly. When tumors reached an average volume of ˜350 mm^3, animals were randomized and treatment was started. […] Tumor volume and body weight were monitored bi-weekly throughout the study. At the conclusion of the treatment period; plasma and tumor samples were taken for pharmacokinetic and pharmacodynamic analyses, respectively.
# metastatic CRPC = test: Phase II clinical trial, metastatic CRPC (treatment-naïve and post-abiraterone acetate cohorts); format: in vivo, human; conditions: for Patients with 12-week PSA decline of ≧50% from baseline: preliminary
# Excerpt: as §1
# [2] = test system: PTEN KO model of prostate cancer; test: PTEN KO genetically engineered mouse model of prostate cancer; format: in vivo, mice; conditions: for Efficacy: combined androgen blockade (castration + anti-androgen)
# Method: Ptenlox/lox; PB-Cre mice (age 6-8 months) are imaged by small animal MRI imaging core prior to and at the completion of treatment. All mice are castrated. Surgical castration is performed under anesthesia with isoflurane. Mice are monitored postoperatively for recovery.
# Mice are administered control vehicle or test article by oral gavage daily Monday through Friday schedule for a total of 35 days. MRI tumor volumes are reported for each mouse at time point zero (T0) at initiation of study and time point 35 days (T35) at completion of study. Changes in tumor volumes between T0 and T35 are calculated for individual mice and reported in waterfall plots. At study end, mice were euthanized by CO2 asphyxiation, and tissue was collected for histology, mRNA analysis, protein analysis and other analyses.
# T877A AR mutant = target: T1, T877A AR mutant (Homo sapiens, UniProt P10275, T878A); conditions: cited from earlier work
# T1 sequence (P10275 1-920 T878A): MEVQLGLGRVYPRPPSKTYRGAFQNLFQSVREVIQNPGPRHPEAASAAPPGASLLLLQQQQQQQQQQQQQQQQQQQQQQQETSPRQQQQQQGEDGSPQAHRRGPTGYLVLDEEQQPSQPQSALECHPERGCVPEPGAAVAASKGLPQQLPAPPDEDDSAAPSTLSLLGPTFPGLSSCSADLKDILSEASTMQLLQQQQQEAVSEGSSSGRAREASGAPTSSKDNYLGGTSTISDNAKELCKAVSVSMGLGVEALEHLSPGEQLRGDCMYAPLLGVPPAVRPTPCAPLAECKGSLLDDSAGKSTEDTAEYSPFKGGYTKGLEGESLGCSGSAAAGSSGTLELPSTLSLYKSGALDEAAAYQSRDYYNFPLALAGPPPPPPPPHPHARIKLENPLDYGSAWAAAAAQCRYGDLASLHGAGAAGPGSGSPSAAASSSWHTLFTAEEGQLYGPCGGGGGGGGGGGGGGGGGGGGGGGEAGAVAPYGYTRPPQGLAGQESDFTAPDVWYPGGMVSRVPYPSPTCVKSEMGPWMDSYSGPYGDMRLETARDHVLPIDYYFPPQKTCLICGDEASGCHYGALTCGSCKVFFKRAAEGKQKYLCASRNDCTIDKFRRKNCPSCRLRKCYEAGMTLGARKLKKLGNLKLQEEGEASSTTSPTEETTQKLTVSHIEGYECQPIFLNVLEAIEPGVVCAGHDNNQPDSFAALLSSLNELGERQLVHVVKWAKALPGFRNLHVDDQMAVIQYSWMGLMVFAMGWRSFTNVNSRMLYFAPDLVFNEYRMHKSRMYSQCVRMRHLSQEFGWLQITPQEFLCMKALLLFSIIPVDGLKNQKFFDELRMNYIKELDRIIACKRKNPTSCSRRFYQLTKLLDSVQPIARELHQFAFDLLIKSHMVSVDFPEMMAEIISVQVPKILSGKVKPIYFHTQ
smiles,measurement,setting,value
"CNC(=O)c1ccc(N2C(=S)N(c3cnc(C#N)c(C(F)(F)F)c3)C(=O)C23CCC3)cc1F [4-[7-(6-cyano-5-trifluoromethylpyridin-3-yl)-8-oxo-6-thioxo-5,7-diazaspiro[3.4]oct-5-yl]-2-fluoro-N-methylbenzamide]",Patients with ≧50% decline in PSA as compared to baseline,non-metastatic CRPC; 12 weeks of treatment,91%
same,Patients with ≧50% decline in PSA,non-metastatic CRPC; 24 weeks,91%
same,Patients with ≧90% decline in PSA,non-metastatic CRPC; 24 weeks,55%
same,Median time to PSA progression,non-metastatic CRPC; observed time period,not reached
same,Tumor response,[1],partial or complete tumor regression
same,Mean tumor response of LNCaP/AR tumors,LNCaP/AR cells; 1 mg/kg/day,tumor stasis
same,Tumor response of LNCaP/AR tumors,LNCaP/AR cells; 10-30 mg/kg/day,nearly full regression of all treated LNCaP/AR tumors
same,Number of regressions > 50%,"LNCaP/AR cells; Table 4, 3 mg/kg/day alone, oral gavage daily",2/10
same,Number of regressions > 50%,"LNCaP/AR cells; Table 5, 3 mg/kg/day alone, oral gavage daily",1/10
same,Number of Tumor Regressions,MDA MB 453 cells; +DHT,9/9
same,Number of Tumor Regressions,MDA MB 453 cells; −DHT,5/10
same,Tolerability,"metastatic CRPC; 240 mg oral, continuous daily dosing, NM-CRPC, TN mCRPC and post-abiraterone mCRPC",very well tolerated
same,Patients with 12-week PSA decline of ≧50% from baseline,"metastatic CRPC; PA cohort, 240 mg oral, continuous daily dosing",29%
same,Median time to PSA progression,"metastatic CRPC; PA cohort, 240 mg/day",16 weeks
same,Patients with 12-week PSA decline of ≧50% from baseline,"metastatic CRPC; TN cohort, 240 mg oral, continuous daily dosing",88%
same,Median time to PSA progression,"metastatic CRPC; TN cohort, preliminary 12-week period, 240 mg/day",not reached
same,Objective response rate (by RECIST),"metastatic CRPC; TN patients with measurable disease at baseline, 240 mg/day",63%
same,Efficacy,[2],minimal efficacy
Cn1c(=O)n(-c2ccc(C(C)(C)C#N)cc2)c2c3cc(-c4cnc5ccccc5c4)ccc3ncc21 [BEZ-235],Anti-tumor activity,[2]; monotherapy,minimal anti-tumor activity
"Nc1cc(C(F)(F)F)c(-c2cc(N3CCOCC3)nc(N3CCOCC3)n2)cn1 [BKM120, 5-(2,6-dimorpholinopyrimidin-4-yl)-4-(trifluoromethyl)pyridin-2-amine]",Number of regressions > 50%,"LNCaP/AR cells; Table 4, BKM120 20 mg/kg alone",1/10
same,Number of regressions > 50%,"LNCaP/AR cells; Table 4, BKM120 40 mg/kg alone",0/9
same,Efficacy on LNCaP/AR tumors,LNCaP/AR cells,a range of efficacy from tumor growth inhibition to tumor stasis
CO[C@H]1C[C@@H]2CC[C@@H](C)[C@@](O)(O2)C(=O)C(=O)N2CCCC[C@H]2C(=O)O[C@H]([C@H](C)C[C@@H]2CC[C@@H](OCCO)[C@H](OC)C2)CC(=O)[C@H](C)/C=C(\C)[C@@H](O)[C@@H](OC)C(=O)[C@H](C)C[C@H](C)/C=C/C=C/C=C/1C [Everolimus],Number of regressions > 50%,"LNCaP/AR cells; Table 5, Everolimus 5 mg/kg/day alone",0/8
same,Number of regressions > 50%,"LNCaP/AR cells; Table 5, Everolimus 10 mg/kg/day alone",2/10
same,Efficacy on LNCaP/AR tumors,LNCaP/AR cells,a range of efficacy from tumor growth inhibition to tumor stasis
"CNC(=O)c1ccc(N2C(=S)N(c3ccc(C#N)c(C(F)(F)F)c3)C(=O)C2(C)C)cc1F [MDV3100, 4-(3-(4-cyano-3-(trifluoromethyl)phenyl)-5,5-dimethyl-4-oxo-2-thioxoimidazolidin-1-yl)-2-fluoro-N-methylbenzamide]",Efficacy,[2],minimal efficacy
COc1ccc(Cl)c(Nc2nc3ccccc3nc2NS(=O)(=O)c2cccc(NC(=O)C(C)(C)N)c2)c1 [SAR245408],Efficacy on LNCaP/AR tumors,LNCaP/AR cells,a range of efficacy from tumor growth inhibition to tumor stasis
CC(C)(O)C(=O)Nc1ccc([N+](=O)[O-])c(C(F)(F)F)c1 [hydroxyflutamide],Agonist activity,T877A AR mutant,act as AR agonists
